Experimental findings from US4077999A, “Novel oxime ethers” (Egyt Gyogyszervegyeszeti Gyar, priority 1976, dated 1978) are described below.

Read-outs that look alike come from different tables or passages of the source. Where only a bound is given, the exact number is not on record here.

The LD50 is the dose expected to kill half of the subjects tested. As a reminder, the ED50 is the dose at which the effect has come halfway, by size or by number of responders.

Data set [1] is described as follows: in vivo. To be noted: mouse.
For the next data set, the system named is tetrabenazine. The data set can be described thus: Tetrabenazine antagonistic effect, oral administration. As to conditions: for ED50: Mus musculus, read-out: Tetrabenazine antagonism, ED50. The class given is in vivo. On the procedure:
(§1) The tetrabenazine-reserpine antagonistic effect was investigated on mice in groups of ten animals each, at oral administration. The inhibition or suspension of the effect of the observed maximum dose was recorded, and the ED50 values were calculated on the basis of the dose vs. effect curves.

Another data set relates to reserpine. The data set can be described thus: Reserpine antagonistic effect, oral administration. It counts as in vivo. To be noted: for ED50: Mus musculus, mice, oral administration, read-out: Reserpine antagonism ED50. As to the method: as §1
The subject of a further data set is ischiadic nerve of rats. Kind of data set: Local analgesic effect (method of Truant and d'Amato), motor paralysis and its duration. The class given is in vivo. To be noted: for Duration, minutes (o.5%): 0.5 % concentration; for Duration, minutes (o.5%) / Duration, minutes (1.0%): duration of local analgesic effect (motor paralysis); for Duration, minutes (1.0%): 1.0 % concentration; for Relative efficiency: local analgesic effect, referred to Lidocaine. The source says:
The local analgesic effect was investigated on the ischiadic nerve of rats by means of the method of Truant and d'Amato (Truant, A.P. and Wiedling, S.: Acta Chirurg. Scand. 116, 351 /1958/). Lidocaine served as reference substance. […]

The nature of data set [2]: in vivo.
A further data set concerns isolated rat-ileum. Kind of data set: Spasmolytic effect on non-striated muscles in isolated rat-ileum (method of Brock et al.). As to conditions: related to papaverine. As to the method: The spasmolytic effect on non-striated muscles was determined in isolated rat-ileum by the method of Brock et al. (Brock, N., Geks, J. and Lorenz, D.: Arch. Exper. Path. u. Pharmacol. 215, 492 /1952/), applying papaverine as reference substance. In order to characterize the efficiency of an individual compound, the efficiency related to that of papaverine and the LD50 values observed on oral administration are shown in Table II.

Another data set relates to nicotine lethality. Kind of data set: Inhibition of nicotine lethality (method of Stone), oral administration. The class given is in vivo, mice. To be noted: for Therapeutic index: LD50/ED50; for ED50: Mus musculus.
Where [3] appears, read: mice, oral administration, Table IV.
Setting [4] is: inhibition of nicotine lethality.
Where [5] appears, read: inhibition of nicotine lethality, mice, oral administration, read-out: ED50.
Where [6] appears, read: mice, oral administration, Table III.
Where [7] appears, read: oral administration, Table II, read-out: LD50 p.o.

Regarding `CN(C)CCC=C1c2ccccc2CCc2ccccc21` [Amitriptylin, reference compound], the LD50 in the data set “in vivo [1]” (setting [3]) amounted to 225 mg/kg. The median effective dose (ED50) stood at 13 mg/kg in the data set with tetrabenazine (po) and 65 mg/kg in the data set with reserpine. Moreover, the Therapeutic index came to 17.3 with tetrabenazine (tetrabenazine antagonism) and 3.5 with reserpine (reserpine antagonism).

In the case of `CN(C)CCCON=C1CCCCC1=Cc1ccccc1` [Example 1, 2-Benzal-1-(3'-dimethylaminopropoxyimino)-cyclohexane], the LD50 in “in vivo [1]” (po) and in “in vivo [2]” (po) was 560 mg/kg each time. Besides, the ED50 is 80 mg/kg in the data set with tetrabenazine (po) and 27 mg/kg in the data set with reserpine. Besides, the Therapeutic index in the data set with tetrabenazine (mouse, in vivo, po) was 7.0; in the data set on reserpine (mouse, in vivo, po), 20.7. In addition, the “Duration, minutes (o.5%)” value with ischiadic nerve of rats came to 99 min. Besides, the “Duration, minutes (1.0%)” value in the data set with ischiadic nerve of rats was determined as 115 min. Moreover, the Relative efficiency in the data set with ischiadic nerve of rats is given as 1.7.

`CCN(CC)CCON=C1CCCCC1=Cc1ccccc1` [Example 2, 2-Benzal-1-(2'-diethylaminoethoxyimino)-cyclohexane] returned a Relative efficiency with isolated rat-ileum of 1.73. In addition, in the data set with ischiadic nerve of rats, the “Duration, minutes (o.5%)” value stood at 72 min; the “Duration, minutes (1.0%)” value worked out at 111 min; the Relative efficiency came to 3.2. This compound also came in with an LD50 in the data set “in vivo [2]” (po) of 430 mg/kg.

As to `NCCON=C1CCCCC1=Cc1ccccc1` [Example 4, 1-(2'-Aminoethoxyimino)-2-benzalcyclohexane], the Therapeutic index in the data set on nicotine lethality (setting [4]) came out at 36.4. In addition, in the data set with nicotine lethality (setting [5]), the ED50 is 11 mg/kg. The compound further displayed an LD50 in the data set “in vivo [1]” (setting [6]) of 400 mg/kg.

As to `CN(C)CCON=C1CCCC1=Cc1ccccc1` [Example 5, 2-Benzal-1-(2'-dimethylaminoethoxyimino)-cyclopentane], in the data set on ischiadic nerve of rats, the “Duration, minutes (o.5%)” value was found to be 68 min; the “Duration, minutes (1.0%)” value came to 96 min; the Relative efficiency amounted to 1.8. Moreover, the LD50 in the data set “in vivo [2]” (po) turned out to be 450 mg/kg.

Take `CCN(CC)CCON=C1CCCC1=Cc1ccccc1` [Example 7, 2-Benzal-1-(2'-diethylaminoethoxyimino)-cyclopentane]: in the data set with ischiadic nerve of rats, the “Duration, minutes (o.5%)” value was determined as 94 min; the “Duration, minutes (1.0%)” value is 127 min; the Relative efficiency is recorded as 1.8. The compound further gave an LD50 in the data set “in vivo [2]” (po) of 210 mg/kg.

Take `CC(C)N(CCON=C1CCCC1=Cc1ccccc1)C(C)C` [Example 8, 2-Benzal-1-(2'-diisopropylaminoethoxyimino)-cyclopentane]: in the data set with ischiadic nerve of rats, the “Duration, minutes (o.5%)” value was found to be 66 min; the “Duration, minutes (1.0%)” value stood at 129 min; the Relative efficiency amounted to 1.1. This compound registered an LD50 in “in vivo [2]” (po) of 450 mg/kg.

For `CN(C)CCCON=C1CCCCCC1=Cc1ccccc1` [Example 10, 2-Benzal-1-(3'-dimethylaminopropoxyimino)-cycloheptane], the Relative efficiency in the data set on isolated rat-ileum is 2.42. Besides, the LD50 in the data set “in vivo [2]” (setting [7]) was 550 mg/kg.

`CC(C)N(CCON=C1CCCCCC1=Cc1ccccc1)C(C)C` [Example 11, 2-Benzal-1-(2'-diisopropylaminoethoxyimino)-cycloheptane]: in the data set on isolated rat-ileum, the Relative efficiency came out at 3.01. Further, in the data set “in vivo [2]” (setting [7]), the LD50 turned out to be 325 mg/kg.

`CN(C)CCCON=C1CCCCCC1=Cc1ccc(Cl)cc1` [Example 12, 1-(3'-Dimethylaminopropoxyimino)-2-(p-chlorobenzal)-cycloheptane] gave a Therapeutic index in the data set on nicotine lethality (setting [4]) of 36.3. Further, in the data set with nicotine lethality (setting [5]), the ED50 turned out to be 40 mg/kg. The same compound returned an LD50 in “in vivo [1]” (setting [6]) of 1450 mg/kg.

On to `COc1ccc(C=C2CCCCCC2=NOCCCN(C)C)cc1` [Example 13, 1-(3'-Dimethylaminopropoxyimino)-2-(p-methoxybenzal)-cycloheptane], for which the Relative efficiency in the data set on isolated rat-ileum came to 1.96. Besides, the LD50 in the data set “in vivo [1]” (setting [3]) and in the data set “in vivo [2]” (setting [7]) was 1000 mg/kg throughout. The ED50 with tetrabenazine (po) came out at 70 mg/kg; in the data set with reserpine, 80 mg/kg. The Therapeutic index with tetrabenazine (tetrabenazine antagonism) came to 14.3; with reserpine (reserpine antagonism), 12.5.

As to `COc1ccccc1C=C1CCCCC1=NOCCCN(C)C` [Example 15, 1-(3'-Dimethylaminopropoxyimino)-2-(o-methoxybenzal)-cyclohexane], in the data set with ischiadic nerve of rats, the “Duration, minutes (o.5%)” value worked out at 92 min; the “Duration, minutes (1.0%)” value stood at 160 min; the Relative efficiency is listed as 1.7. The LD50 in the data set “in vivo [2]” (po) turned out to be 880 mg/kg.

In the data set with isolated rat-ileum, `COc1ccccc1C=C1CCCCC1=NOCC(C)CN(C)C` (stereo not drawn) [Example 18, 1-(2'-Methyl-3'-dimethylaminopropoxyimino)-2-(o-methoxybenzal)-cyclohexane] gave a Relative efficiency of 2.43. Besides, the LD50 in the data set “in vivo [2]” (setting [7]) is 650 mg/kg.

In “in vivo [1]” (setting [3]), `CN(C)CCCON=C1CCCCC1=Cc1ccc(Cl)cc1` [Example 19, 1-(Dimethylaminopropoxyimino)-2-(p-chlorobenzal)-cyclohexane] had an LD50 of 900 mg/kg. In addition, the ED50 in the data set on tetrabenazine (po) is 34 mg/kg; with reserpine it was over 180 mg/kg. For the same compound, the Therapeutic index with tetrabenazine (tetrabenazine antagonism) was found to be 26.5; in the data set with reserpine (reserpine antagonism), 5.0.

`CN(C)CCCON=C1CCCCC1=Cc1ccccc1Cl` [Example 21, 1-(Dimethylaminopropoxyimino)-2-(o-chlorobenzal)-cyclohexane] had a 50% lethal dose (LD50) in “in vivo [1]” (setting [3]) of 1500 mg/kg. The results for the ED50 in the data set on tetrabenazine (po) and in the data set on reserpine were 22 mg/kg and over 100 mg/kg, respectively. Also, the Therapeutic index is reported as 68.2 in the data set on tetrabenazine (tetrabenazine antagonism) and 15.0 in the data set on reserpine (reserpine antagonism).

Take `CN(C)CCON=C1CCCC1=Cc1ccccc1` [Example 27, 2-Benzal-1-(2'-dimethylaminoethoxyimino)-cyclopentane]: the Therapeutic index with nicotine lethality (setting [4]) is 12.8; in the data set on tetrabenazine (tetrabenazine antagonism) it was 5.0; in the data set with reserpine (reserpine antagonism) it was 33.0. Moreover, the results for the ED50 with nicotine lethality (po), with tetrabenazine (po) and in the data set with reserpine were 47 mg/kg, 120 mg/kg and 18 mg/kg, respectively. In addition, the LD50 in the data set “in vivo [1]” (setting [3]) was 600 mg/kg.

For the compound `CCN(CC)CC(=O)Nc1c(C)cccc1C` [Lidocaine, reference compound], in the data set with ischiadic nerve of rats, the “Duration, minutes (o.5%)” value stood at 28 min and the “Duration, minutes (1.0%)” value was found to be 52 min.

With `COc1ccc(Cc2nccc3cc(OC)c(OC)cc23)cc1OC` [Papaverine, reference compound], the LD50 in “in vivo [2]” (setting [7]) came out at 367 mg/kg.

Regarding `OC(CCN1CCCCC1)(c1ccccc1)C1CCCCC1` (stereo not drawn) [Trihexyphenidyl (Artane), Trihexyphenidyl, reference compound], the ED50 with nicotine lethality (setting [5]) turned out to be 40 mg/kg.
